From patent US10584128B2, “Bicyclic dihydropyrimidine-carboxamide derivatives as Rho-Kinase inhibitors” (CHIESI FARMACEUTICI S.p.A., priority 2016, dated 2020)

How the values were obtained:
[1] = molecular target: Rho kinase 2 (Homo sapiens, UniProt O75116); experiment: In vitro Rho kinase inhibitory activity assay (ADP-Glo kit, Myelin Basic Protein substrate); assay type: biochemical; settings: 10 μM ATP, 25° C., read-out: ROCK2 inhibitory activity (Ki, range of activity)
Outline: (§1)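 ADP-Glo luminescence read-out. Enzyme (ROCK1 or ROCK2) + compound 30 min, then 10 μM ATP final, 1 h, 25 °C; 2.5 μM MBP peptide substrate, Tris pH7.5/MgCl2/BSA/DTT buffer, 1% DMSO. IC50 from variable-slope fit (0–100% fixed); Ki via Cheng-Prusoff.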

[2] = molecular target: Rho kinase 1 (Homo sapiens, UniProt Q13464); experiment: as above; assay type: biochemical; settings: 10 μM ATP, 25° C., read-out: ROCK1 inhibitory activity (Ki, range of activity)
Rho kinase 1, sequence (Q13464 whole entry): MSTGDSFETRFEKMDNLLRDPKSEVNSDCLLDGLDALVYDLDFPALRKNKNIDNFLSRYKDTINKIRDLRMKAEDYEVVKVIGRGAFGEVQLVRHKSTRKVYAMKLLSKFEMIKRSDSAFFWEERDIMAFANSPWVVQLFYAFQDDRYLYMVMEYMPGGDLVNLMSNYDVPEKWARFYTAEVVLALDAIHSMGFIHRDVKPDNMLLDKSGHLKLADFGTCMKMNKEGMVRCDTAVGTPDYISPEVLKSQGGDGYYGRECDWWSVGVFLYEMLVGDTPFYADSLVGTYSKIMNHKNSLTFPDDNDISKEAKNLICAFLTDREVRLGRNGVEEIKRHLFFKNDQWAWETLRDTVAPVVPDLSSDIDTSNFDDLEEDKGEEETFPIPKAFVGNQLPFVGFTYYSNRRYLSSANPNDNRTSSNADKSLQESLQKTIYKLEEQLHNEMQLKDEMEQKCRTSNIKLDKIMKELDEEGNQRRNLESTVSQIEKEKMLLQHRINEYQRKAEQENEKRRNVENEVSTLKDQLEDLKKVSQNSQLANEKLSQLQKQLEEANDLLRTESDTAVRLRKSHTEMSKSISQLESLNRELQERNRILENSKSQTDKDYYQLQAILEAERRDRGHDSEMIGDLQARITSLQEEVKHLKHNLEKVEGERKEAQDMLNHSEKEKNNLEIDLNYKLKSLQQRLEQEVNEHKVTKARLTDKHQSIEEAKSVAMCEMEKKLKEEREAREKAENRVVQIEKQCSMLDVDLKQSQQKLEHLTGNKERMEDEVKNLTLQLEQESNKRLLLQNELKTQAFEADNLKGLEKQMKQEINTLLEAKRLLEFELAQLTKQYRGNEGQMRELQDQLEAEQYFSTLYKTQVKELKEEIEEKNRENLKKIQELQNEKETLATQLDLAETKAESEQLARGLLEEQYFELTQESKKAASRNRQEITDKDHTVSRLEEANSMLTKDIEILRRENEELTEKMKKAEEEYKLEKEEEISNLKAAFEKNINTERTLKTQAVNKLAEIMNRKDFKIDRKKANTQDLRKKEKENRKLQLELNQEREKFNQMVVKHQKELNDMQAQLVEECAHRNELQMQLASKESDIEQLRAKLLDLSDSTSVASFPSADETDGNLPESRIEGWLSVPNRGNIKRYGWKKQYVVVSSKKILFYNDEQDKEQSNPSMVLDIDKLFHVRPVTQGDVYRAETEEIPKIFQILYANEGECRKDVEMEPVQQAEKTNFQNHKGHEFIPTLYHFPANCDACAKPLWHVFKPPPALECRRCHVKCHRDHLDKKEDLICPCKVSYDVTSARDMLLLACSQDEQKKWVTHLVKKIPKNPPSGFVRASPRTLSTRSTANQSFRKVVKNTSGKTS
Outline: as §1

Rho kinase 2, sequence (O75116 whole entry): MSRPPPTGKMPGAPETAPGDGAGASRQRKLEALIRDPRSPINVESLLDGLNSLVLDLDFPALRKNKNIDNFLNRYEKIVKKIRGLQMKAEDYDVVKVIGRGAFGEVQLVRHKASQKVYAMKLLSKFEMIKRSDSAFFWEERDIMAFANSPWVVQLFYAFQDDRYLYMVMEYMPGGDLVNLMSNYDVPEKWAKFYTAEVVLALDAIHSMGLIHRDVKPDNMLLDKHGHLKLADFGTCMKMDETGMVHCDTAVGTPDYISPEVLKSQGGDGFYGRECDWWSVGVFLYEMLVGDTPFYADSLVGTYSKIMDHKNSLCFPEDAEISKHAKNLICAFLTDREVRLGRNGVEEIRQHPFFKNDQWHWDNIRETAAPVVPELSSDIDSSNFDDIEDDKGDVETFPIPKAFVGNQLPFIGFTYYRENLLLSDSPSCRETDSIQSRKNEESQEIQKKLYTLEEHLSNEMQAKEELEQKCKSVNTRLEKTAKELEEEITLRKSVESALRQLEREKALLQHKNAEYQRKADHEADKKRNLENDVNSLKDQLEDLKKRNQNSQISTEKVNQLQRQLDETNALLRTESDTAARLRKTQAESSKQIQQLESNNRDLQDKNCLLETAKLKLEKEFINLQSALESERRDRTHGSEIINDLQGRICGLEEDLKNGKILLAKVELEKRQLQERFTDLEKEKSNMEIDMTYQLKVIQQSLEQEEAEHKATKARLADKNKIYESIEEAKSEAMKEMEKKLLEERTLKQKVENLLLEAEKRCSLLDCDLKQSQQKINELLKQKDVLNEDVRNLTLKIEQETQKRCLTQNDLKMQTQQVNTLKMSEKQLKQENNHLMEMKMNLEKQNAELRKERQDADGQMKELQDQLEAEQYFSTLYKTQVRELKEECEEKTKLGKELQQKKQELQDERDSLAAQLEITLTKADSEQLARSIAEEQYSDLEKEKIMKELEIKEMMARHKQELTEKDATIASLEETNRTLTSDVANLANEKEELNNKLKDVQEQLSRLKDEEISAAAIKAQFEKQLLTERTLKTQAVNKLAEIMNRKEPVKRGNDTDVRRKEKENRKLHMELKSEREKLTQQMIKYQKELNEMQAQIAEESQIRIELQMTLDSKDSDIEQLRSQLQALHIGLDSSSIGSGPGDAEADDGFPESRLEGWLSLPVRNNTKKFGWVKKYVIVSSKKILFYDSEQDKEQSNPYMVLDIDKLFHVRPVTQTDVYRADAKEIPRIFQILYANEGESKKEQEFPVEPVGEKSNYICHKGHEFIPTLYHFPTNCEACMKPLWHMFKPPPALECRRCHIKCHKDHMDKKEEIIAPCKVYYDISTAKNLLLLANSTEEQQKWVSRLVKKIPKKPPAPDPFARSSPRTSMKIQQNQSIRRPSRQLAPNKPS

Row | SMILES | Ki [1] | Ki [2]
1 | CC1=C(C(=O)Nc2ccc3cnccc3c2)C(c2ccc(C)c(F)c2)n2nc(NC(=O)CN3CCCC3)cc2N1 (stereo not shown) [Example 134, 7-(3-fluoro-4-methylphenyl)-N-(isoquinolin-6-yl)-5-methyl-2-(2-(pyrrolidin-1-yl)acetamido)-4,7-dihydropyrazolo[1,5-a]pyrimidine-6-carboxamide] | < 50 nM | < 50 nM
2 | CCOC(=O)c1cc2n(n1)C(c1ccc(C(F)F)c(F)c1)C(C(=O)Nc1ccc3cnccc3c1)=C(C)N2 (stereo not shown) [Example 115, ethyl 7-(4-(difluoromethyl)-3-fluorophenyl)-6-(isoquinolin-6-ylcarbamoyl)-5-methyl-4,7-dihydropyrazolo[1,5-a]pyrimidine-2-carboxylate] | < 50 nM | < 50 nM
3 | CC1=C(C(=O)Nc2ccc3cnccc3c2)C(c2ccc(C)cc2F)n2nc(CO)cc2N1 (stereo not shown) [Example 59, 7-(2-fluoro-4-methylphenyl)-2-(hydroxymethyl)-N-(isoquinolin-6-yl)-5-methyl-4,7-dihydropyrazolo[1,5-a]pyrimidine-6-carboxamide] | < 50 nM | < 50 nM
4 | CCOC(=O)c1cc2n(n1)C(c1ccc(C(F)(F)F)c(F)c1)C(C(=O)Nc1ccc3cnccc3n1)=C(C)N2 (stereo not shown) [Example 113, ethyl 6-((1,6-naphthyridin-2-yl)carbamoyl)-7-(3-fluoro-4-(trifluoromethyl)phenyl)-5-methyl-4,7-dihydropyrazolo[1,5-a]pyrimidine-2-carboxylate] | < 50 nM | < 50 nM
5 | CC1=C(C(=O)Nc2ccc3cnccc3c2)C(c2ccc3cc[nH]c3c2)n2nc(CO)cc2N1 (stereo not shown) [Example 63, 2-(hydroxymethyl)-7-(1H-indol-6-yl)-N-(isoquinolin-6-yl)-5-methyl-4,7-dihydropyrazolo[1,5-a]pyrimidine-6-carboxamide] | < 50 nM | < 50 nM
6 | CCOC(=O)c1cc2n(n1)C(c1ccc(C(F)(F)F)c(F)c1)C(C(=O)Nc1cc3cnccc3s1)=C(C)N2 (stereo not shown) [Example 41, Ethyl 7-(3-fluoro-4-(trifluoromethyl)phenyl)-5-methyl-6-(thieno[3,2-c]pyridin-2-ylcarbamoyl)-4,7-dihydropyrazolo[1,5-a]pyrimidine-2-carboxylate] | 50 to 500 nM | > 500 nM
7 | CC1=C(C(=O)Nc2ccc3cnccc3c2)C(c2cnc(-c3ccccc3)s2)n2nc(CO)cc2N1 (stereo not shown) [Example 52, 2-(hydroxymethyl)-N-(isoquinolin-6-yl)-5-methyl-7-(2-phenylthiazol-5-yl)-4,7-dihydropyrazolo[1,5-a]pyrimidine-6-carboxamide] | < 50 nM | < 50 nM
8 | CC1=C(C(=O)Nc2ccc3cnccc3c2)C(C2Cc3ccccc3C2)n2nc(CN(C)C)cc2N1 (stereo not shown) [Example 124, 7-(2,3-dihydro-1H-inden-2-yl)-2-((dimethylamino)methyl)-N-(isoquinolin-6-yl)-5-methyl-4,7-dihydropyrazolo[1,5-a]pyrimidine-6-carboxamide] | < 50 nM | < 50 nM
9 | CC1=C(C(=O)Nc2ccc3[nH]ncc3c2)C(c2ccc(Cl)nc2)n2nc(C(F)(F)F)cc2N1 (single isomer, unassigned) [Example 32A, 7-(6-chloropyridin-3-yl)-N-(1H-indazol-5-yl)-5-methyl-2-(trifluoromethyl)-4,7-dihydropyrazolo[1,5-a]pyrimidine-6-carboxamide] | > 500 nM | > 500 nM
10 | CC1=C(C(=O)Nc2ccc3cnccc3c2)C(c2ccc(C(F)(F)F)c(F)c2)n2nc(C3CCN(C(=O)CCN4CCCCC4)CC3)cc2N1 (single isomer, unassigned) [135B] | < 50 nM | < 50 nM
11 | CC1=C(C(=O)Nc2ccc3cnccc3c2)C(c2ccc(C(F)(F)F)c(F)c2)n2nc(CN3CCN(C)CC3)cc2N1 (single isomer, unassigned) [Example 96B, 7-(3-fluoro-4-(trifluoromethyl)phenyl)-N-(isoquinolin-6-yl)-5-methyl-2-((4-methylpiperazin-1-yl)methyl)-4,7-dihydropyrazolo[1,5-a]pyrimidine-6-carboxamide] | < 50 nM | < 50 nM
12 | CC1=C(C(=O)Nc2ccc3cnccc3c2)C(c2ccc(C(F)(F)F)c(F)c2)n2nc(C3COC3)cc2N1 (stereo not shown) [Example 116, 7-(3-fluoro-4-(trifluoromethyl)phenyl)-N-(isoquinolin-6-yl)-5-methyl-2-(oxetan-3-yl)-4,7-dihydropyrazolo[1,5-a]pyrimidine-6-carboxamide] | < 50 nM | < 50 nM
13 | CC1=C(C(=O)Nc2ccc3[nH]ncc3c2)C(c2ccc(C)cc2)n2nc(C(=O)O)cc2N1 (stereo not shown) [Example 74, 6-((1H-indazol-5-yl)carbamoyl)-5-methyl-7-(p-tolyl)-4,7-dihydropyrazolo[1,5-a]pyrimidine-2-carboxylic acid] | < 50 nM | < 50 nM
14 | CC1=C(C(=O)Nc2ccc3[nH]ncc3c2)C(c2ccc(F)cc2)n2nc(CO)cc2N1 (single isomer, unassigned) [Example 71B, 7-(4-fluorophenyl)-2-(hydroxymethyl)-N-(1H-indazol-5-yl)-5-methyl-4,7-dihydropyrazolo[1,5-a]pyrimidine-6-carboxamide] | > 500 nM | > 500 nM
15 | CC1=C(C(=O)Nc2ccc3cnccc3c2)C(c2ccc(C(F)(F)F)c(F)c2)n2nc(C(=O)N3CCC(N(C)C)CC3)cc2N1 (stereo not shown) [Example 87, 2-(4-(dimethylamino)piperidine-1-carbonyl)-7-(3-fluoro-4-(trifluoromethyl)phenyl)-N-(isoquinolin-6-yl)-5-methyl-4,7-dihydropyrazolo[1,5-a]pyrimidine-6-carboxamide] | < 50 nM | < 50 nM
16 | CC1=C(C(=O)Nc2ccc3cnccc3c2)C(c2ccc(C(F)(F)F)c(F)c2)n2nc(C(=O)N(C)CCN3CCOCC3)cc2N1 (stereo not shown) [Example 83, 7-(3-fluoro-4-(trifluoromethyl)phenyl)-N6-(isoquinolin-6-yl)-N2,5-dimethyl-N2-(2-morpholinoethyl)-4,7-dihydropyrazolo[1,5-a]pyrimidine-2,6-dicarboxamide] | < 50 nM | < 50 nM
17 | CC1=C(C(=O)Nc2ccc3cnccc3c2)C(c2ccc(C(F)(F)F)c(F)c2)n2nc(CN)cc2N1 (stereo not shown) [Example 112, 2-(aminomethyl)-7-(3-fluoro-4-(trifluoromethyl)phenyl)-N-(isoquinolin-6-yl)-5-methyl-4,7-dihydropyrazolo[1,5-a]pyrimidine-6-carboxamide] | < 50 nM | < 50 nM
18 | CC1=C(C(=O)Nc2ccc3[nH]ncc3c2)C(c2ccc(C(F)(F)F)cc2)n2nc(CO)cc2N1 (single isomer, unassigned) [Example 69A, 2-(hydroxymethyl)-N-(1H-indazol-5-yl)-5-methyl-7-(4-(trifluoromethyl)phenyl)-4,7-dihydropyrazolo[1,5-a]pyrimidine-6-carboxamide] | 50 to 500 nM | 50 to 500 nM
19 | COCc1cc2n(n1)C(c1ccc(C(F)(F)F)cc1)C(C(=O)Nc1ccc3[nH]ncc3c1)=C(C)N2 (stereo not shown) [Example 35, N-(1H-indazol-5-yl)-2-(methoxymethyl)-5-methyl-7-(4-(trifluoromethyl)phenyl)-4,7-dihydropyrazolo[1,5-a]pyrimidine-6-carboxamide] | < 50 nM | < 50 nM
20 | CCOC(=O)c1cnn2c1NC(C)=C(C(=O)Nc1ccc3[nH]ncc3c1)C2c1ccc(F)cc1 (stereo not shown) [Example 17, ethyl 6-((1H-indazol-5-yl)carbamoyl)-7-(4-fluorophenyl)-5-methyl-4,7-dihydropyrazolo[1,5-a]pyrimidine-3-carboxylate] | > 500 nM | > 500 nM
21 | CC1=C(C(=O)Nc2ccc3cnccc3c2)C(c2ccc(C)c(F)c2)n2nc(CO)cc2N1 (stereo not shown) [Example 58, 7-(3-fluoro-4-methylphenyl)-2-(hydroxymethyl)-N-(isoquinolin-6-yl)-5-methyl-4,7-dihydropyrazolo[1,5-a]pyrimidine-6-carboxamide] | < 50 nM | < 50 nM
22 | CC1=C(C(=O)Nc2ccc3cnccc3c2)C(C2CCC(C(F)(F)F)CC2)n2nc(CN(C)C)cc2N1 (stereo not shown) [Example 120, 2-((dimethylamino)methyl)-N-(isoquinolin-6-yl)-5-methyl-7-(4-(trifluoromethyl)cyclohexyl)-4,7-dihydropyrazolo[1,5-a]pyrimidine-6-carboxamide] | < 50 nM | < 50 nM
23 | CC1=C(C(=O)Nc2ccc3cnccc3c2)C(c2ccc(C(F)(F)F)c(F)c2)n2nc(C3CCN(C(=O)CCN4CCCCC4)CC3)cc2N1 (single isomer, unassigned) [135A] | > 500 nM | > 500 nM
24 | CCOC(=O)c1cc2n(n1)C(C1CCCCC1)C(C(=O)Nc1ccc3[nH]ncc3c1)=C(C)N2 (stereo not shown) [Example 14, ethyl 6-((1H-indazol-5-yl)carbamoyl)-7-cyclohexyl-5-methyl-4,7-dihydropyrazolo[1,5-a]pyrimidine-2-carboxylate] | < 50 nM | 50 to 500 nM
25 | CC1=C(C(=O)Nc2ccc3cnccc3c2)C(c2ccc(C(F)(F)F)c(F)c2)n2nc(CN3CCCC3)cc2N1 (stereo not shown) [Example 102, 7-(3-fluoro-4-(trifluoromethyl)phenyl)-N-(isoquinolin-6-yl)-5-methyl-2-(pyrrolidin-1-ylmethyl)-4,7-dihydropyrazolo[1,5-a]pyrimidine-6-carboxamide] | < 50 nM | < 50 nM
26 | CC1=C(C(=O)Nc2ccc3cnccc3c2)C(c2ccc(C(F)(F)F)c(F)c2)n2nc(NC(=O)CN3CCCC3)cc2N1 (stereo not shown) [Example 132, 7-(3-fluoro-4-(trifluoromethyl)phenyl)-N-(isoquinolin-6-yl)-5-methyl-2-(2-(pyrrolidin-1-yl)acetamido)-4,7-dihydropyrazolo[1,5-a]pyrimidine-6-carboxamide] | < 50 nM | < 50 nM
